Values quoted from earlier work in PubChem BioAssay AID1259409 (Chemical Carcinogenesis Research Information System (CCRIS), 2018).

Test system: rodent chemically induced tumor inhibition, incidence and multiplicity
Assay: CCRIS tumor inhibitor studies
Conditions: Promoter: NONE USED

N#CSCc1ccccc1
tumour outcome (control, treated, inhibition, significance) (Carcinogen: 7,12-DIMETHYLBENZ[A]ANTHRACENE, 57-97-6, Dose [Inhibitor]: 0, 25 PPM IN DIET BEGINNING 2 WK PRIOR TO CARCINOGEN DOSE AND CONTINUING FOR 1 WK POST CARCINOGEN DOSE (STUDY DURATION:, Route [Inhibitor]: ORAL, Species: RAT, Strain/Sex: SPRAGUE-DAWLEY/FEMALE, Target Tissue: Type of Lesion: MAMMARY GLAND: TUMOR, Dose [Carcinogen]: 10 MG IN 1 ML OLIVE OIL ONCE AT 7 WK OF AGE): 19/21 (91%), 19/21 (91%), 0% | tumour outcome (control, treated, inhibition, significance) (Carcinogen: 7,12-DIMETHYLBENZ[A]ANTHRACENE, 57-97-6, Dose [Inhibitor]: 0.03 NMOL/G DIET DAILY FOR 17 WK STARTING 1 WK PRIOR TO CARCINOGEN TREATMENT AND CONTINUING THROUGH THE END OF THE STUDY, Route [Inhibitor]: ORAL, Species: RAT, Strain/Sex: SPRAGUE-DAWLEY/FEMALE, Target Tissue: Type of Lesion: MAMMARY GLAND: TUMOR, Dose [Carcinogen]: 12 MG IN 1 ML OLIVE OIL ONCE): 79%, 8%, 90%, p<0.001 | tumour outcome (control, treated, inhibition, significance) (Carcinogen: 7,12-DIMETHYLBENZ[A]ANTHRACENE, 57-97-6, Dose [Inhibitor]: 5.0 MG/G DIET AT AGE 9 WK SIMULTANEOUSLY WITH CARCINOGEN, 3/WK FOR 4 WK (STUDY DURATION: 20 WK), Route [Inhibitor]: ORAL, Species: MOUSE, Strain/Sex: ICR/FEMALE, Target Tissue: Type of Lesion: FORESTOMACH: TUMOR, Dose [Carcinogen]: 0.05 MG/G DIET AT AGE 9 WK, 3/WK FOR 4 WK): 87%, 80%, 8%, not significant | tumour outcome (control, treated, inhibition, significance) (Carcinogen: 7,12-DIMETHYLBENZ[A]ANTHRACENE, 57-97-6, Dose [Inhibitor]: 50 MG ONCE 2 HR BEFORE DMBA TREATMENT (STUDY DURATION: 18 WK), Route [Inhibitor]: INTRAGASTRIC, Species: RAT, Strain/Sex: SPRAGUE-DAWLEY/FEMALE, Target Tissue: Type of Lesion: MAMMARY GLAND: TUMOR, Dose [Carcinogen]: 12 MG IN 1 ML OLIVE OIL AT AGE 7 WK 2 HR AFTER AGENT TREATMENT): 77%, 55%, 28%, not significant | tumour outcome (control, treated, inhibition, significance) (Carcinogen: 7,12-DIMETHYLBENZ[A]ANTHRACENE, 57-97-6, Dose [Inhibitor]: 50 MG ONCE 4 HR BEFORE DMBA TREATMENT (STUDY DURATION: 18 WK), Route [Inhibitor]: INTRAGASTRIC, Species: RAT, Strain/Sex: SPRAGUE-DAWLEY/FEMALE, Target Tissue: Type of Lesion: MAMMARY GLAND: TUMOR, Dose [Carcinogen]: 12 MG IN 1 ML OLIVE OIL AT AGE 7 WK 4 HR AFTER AGENT TREATMENT): 100%, 36%, 64%, p<0.001 | tumour outcome (control, treated, inhibition, significance) (Carcinogen: BENZO[A]PYRENE, 50-32-8, Dose [Inhibitor]: 0, 0.045 UMOL/G DIET BEGINNING 1 WK PRIOR TO CARCINOGEN TREATMENT AND CONTINUING FOR 1 WK POST CARCINOGEN TREATMENT FOLL, Route [Inhibitor]: ORAL, Species: MOUSE, Strain/Sex: CD-1/FEMALE, Target Tissue: Type of Lesion: FORESTOMACH: PAPILLOMA, Dose [Carcinogen]: 1 MG IN 0.2 ML CORN OIL 2/WK FOR 4 WK): 85%, 84%, 1%, not significant | tumour outcome (control, treated, inhibition, significance) (Carcinogen: DIETHYLNITROSAMINE, 55-18-5, Dose [Inhibitor]: 0, 100 PPM IN DIET FOR DURATION OF STUDY BEGINNING 1 WK PRIOR TO CARCINOGEN DOSE (STUDY DURATION: 53 WK), Route [Inhibitor]: ORAL, Species: RAT, Strain/Sex: ACI/MALE, Target Tissue: Type of Lesion: LIVER: HEPATOCELLULAR ADENOMA, Dose [Carcinogen]: 200 MG/KG BW ONCE): 10/18 (55%), 6/16 (38%), 31%, not significant | tumour outcome (control, treated, inhibition, significance) (Carcinogen: DIETHYLNITROSAMINE, 55-18-5, Dose [Inhibitor]: 0, 100 PPM IN DIET FOR DURATION OF STUDY BEGINNING 1 WK PRIOR TO CARCINOGEN DOSE (STUDY DURATION: 53 WK), Route [Inhibitor]: ORAL, Species: RAT, Strain/Sex: ACI/MALE, Target Tissue: Type of Lesion: LIVER: HEPATOCELLULAR CARCINOMA, Dose [Carcinogen]: 200 MG/KG BW ONCE): 6/18 (33%), 2/16 (13%), 61%, not significant | tumour outcome (control, treated, inhibition, significance) (Carcinogen: METHYLAZOXYMETHANOL ACETATE, 592-62-1, Dose [Inhibitor]: 0, 100 PPM IN DIET FOR 4 WK BEGINNING 1 WK PRIOR TO CARCINOGEN TREATMENT (STUDY DURATION: 49 WK), Route [Inhibitor]: ORAL, Species: RAT, Strain/Sex: ACI/FEMALE, Target Tissue: Type of Lesion: COLON: CARCINOMA, Dose [Carcinogen]: 25 MG/KG BW 1/WK FOR 3 WK): 11/18 (61%), 10/12 (83%), -36%, not significant | tumour outcome (control, treated, inhibition, significance) (Carcinogen: METHYLAZOXYMETHANOL ACETATE, 592-62-1, Dose [Inhibitor]: 0, 100 PPM IN DIET FOR 4 WK BEGINNING 1 WK PRIOR TO CARCINOGEN TREATMENT (STUDY DURATION: 49 WK), Route [Inhibitor]: ORAL, Species: RAT, Strain/Sex: ACI/FEMALE, Target Tissue: Type of Lesion: SMALL INTESTINE: ADENOMA OR CARCINOMA, Dose [Carcinogen]: 25 MG/KG BW 1/WK FOR 3 WK): 11/18 (61%), 8/12 (67%), -10%, not significant | tumour outcome (control, treated, inhibition, significance) (Carcinogen: METHYLAZOXYMETHANOL ACETATE, 592-62-1, Dose [Inhibitor]: 0, 100 PPM IN DIET FOR 46 WK BEGINNING 1 WK POST CARCINOGEN TREATMENT (STUDY DURATION: 49 WK), Route [Inhibitor]: ORAL, Species: RAT, Strain/Sex: ACI/FEMALE, Target Tissue: Type of Lesion: COLON: ADENOMA OR CARCINOMA, Dose [Carcinogen]: 25 MG/KG BW 1/WK FOR 3 WK): 15/18 (83%), 18/19 (95%), -14%, not significant | tumour outcome (control, treated, inhibition, significance) (Carcinogen: METHYLAZOXYMETHANOL ACETATE, 592-62-1, Dose [Inhibitor]: 0, 100 PPM IN DIET FOR 46 WK BEGINNING 1 WK POST CARCINOGEN TREATMENT (STUDY DURATION: 49 WK), Route [Inhibitor]: ORAL, Species: RAT, Strain/Sex: ACI/FEMALE, Target Tissue: Type of Lesion: SMALL INTESTINE: ADENOMA OR CARCINOMA, Dose [Carcinogen]: 25 MG/KG BW 1/WK FOR 3 WK): 11/18 (61%), 8/19 (42%), 31%, not significant | tumour outcome (control, treated, inhibition, significance) (Carcinogen: METHYLAZOXYMETHANOL ACETATE, 592-62-1, Dose [Inhibitor]: 0, 400 PPM IN DIET FOR 4 WK BEGINNING 1 WK PRIOR TO CARCINOGEN TREATMENT (STUDY DURATION: 49 WK), Route [Inhibitor]: ORAL, Species: RAT, Strain/Sex: ACI/FEMALE, Target Tissue: Type of Lesion: COLON: ADENOMA OR CARCINOMA, Dose [Carcinogen]: 25 MG/KG BW 1/WK FOR 3 WK): 15/18 (83%), 17/21 (81%), 2%, not significant | tumour outcome (control, treated, inhibition, significance) (Carcinogen: METHYLAZOXYMETHANOL ACETATE, 592-62-1, Dose [Inhibitor]: 0, 400 PPM IN DIET FOR 4 WK BEGINNING 1 WK PRIOR TO CARCINOGEN TREATMENT (STUDY DURATION: 49 WK), Route [Inhibitor]: ORAL, Species: RAT, Strain/Sex: ACI/FEMALE, Target Tissue: Type of Lesion: SMALL INTESTINE: CARCINOMA, Dose [Carcinogen]: 25 MG/KG BW 1/WK FOR 3 WK): 10/18 (56%), 1/21 (5%), 91%, not calculated | tumour outcome (control, treated, inhibition, significance) (Carcinogen: METHYLAZOXYMETHANOL ACETATE, 592-62-1, Dose [Inhibitor]: 0, 400 PPM IN DIET FOR 46 WK BEGINNING 1 WK POST CARCINOGEN TREATMENT (STUDY DURATION: 49 WK), Route [Inhibitor]: ORAL, Species: RAT, Strain/Sex: ACI/FEMALE, Target Tissue: Type of Lesion: COLON: ADENOMA OR CARCINOMA, Dose [Carcinogen]: 25 MG/KG BW 1/WK FOR 3 WK): 15/18 (83%), 13/18 (72%), 13%, not significant | tumour outcome (control, treated, inhibition, significance) (Carcinogen: METHYLAZOXYMETHANOL ACETATE, 592-62-1, Dose [Inhibitor]: 0, 400 PPM IN DIET FOR 46 WK BEGINNING 1 WK POST CARCINOGEN TREATMENT (STUDY DURATION: 49 WK), Route [Inhibitor]: ORAL, Species: RAT, Strain/Sex: ACI/FEMALE, Target Tissue: Type of Lesion: SMALL INTESTINE: ADENOMA OR CARCINOMA, Dose [Carcinogen]: 25 MG/KG BW 1/WK FOR 3 WK): 11/18 (61%), 3/18 (17%), 72%, p<0.01
